US20170281642A1, “METHODS OF TREATING ACUTE MYELOID LEUKEMIA OR ACUTE LYMPHOID LEUKEMIA USING PHARMACEUTICAL COMPOSITIONS CONTAINING THIENOTRIAZOLODIAZEPINE COMPOUNDS” (ONCOETHIX GmbH, priority 2014, published 2017)
“Also recorded” adds a separate entry of the source.

What was measured:
[1] = tested on: HEXIM1; assay: HEXIM1 mRNA and protein expression in acute leukemia cell lines; format: cell-based
[2] = tested on: BM mononuclear cells from ALL and AML patients; assay: ex vivo apoptosis in BM mononuclear cells of ALL and AML patients; format: cell-based, human; details: 500 nM, 72 h
Experimental: (§1) Apoptosis, mRNA and protein expression were evaluated in BM mononuclear cells obtained from representative newly diagnosed or relapsed ALL and AML patients, see Table 7, treated in the context of an ongoing Phase Ib study with compound (1-1) and for whom sufficient material for analysis was available. Apoptosis induction by exposure to 500 nM compound (1-1) for 72 h was variable among the patient samples tested (FIG. 15A).

[3] = tested on: BRD3; assay: BRD3 protein levels in acute leukemia cell lines; format: cell-based; details: 500 nM; all cell lines evaluated
[4] = tested on: c-MYC; assay: c-MYC mRNA (quantitative RT-PCR) and protein (Western blotting) expression in acute leukemia cell lines; format: cell-based; details: 500 nM
[5] = tested on: BRD4; assay: BRD4 protein expression in acute leukemia cell lines; format: cell-based; details: 500 nM; only OCI-AML3, NB4 and K562 cell lines
[6] = tested on: c-MYC; assay: ex vivo c-MYC mRNA and protein expression in patient samples; format: cell-based, human; details: 500 nM
Experimental: as §1

[7] = tested on: caspase-3 and cytochrome c; assay: caspase-3 activation and cytochrome c release in cell lines; format: cell-based; details: 500 nM, 72 h
Experimental: (§2) At 500 nM compound (1-1), 30-90% of cells were apoptotic in five of nine AML cell lines (HEL, NB4, NOMO-1, OCI-AML3, KASUMI) and 50-90% in two of four ALL cell lines (JURKAT and RS4-11; FIG. 14C).

[8] = tested on: BRD2; assay: ex vivo BRD2 protein expression in primary AML samples; format: cell-based, human; details: 500 nM, 72 h; three primary AML samples
[9] = tested on: AML and ALL cell lines; assay: apoptosis by Annexin V staining and PI uptake; format: cell-based; details: 72 h; for apoptotic cells: 500 nM
Experimental: as §2

[10] = tested on: BRD2/3/4; assay: BRD2/3/4 expression in acute leukemia cell lines; format: cell-based; details: 500 nM, 48 h
[11] = tested on: BRD2; assay: BRD2 protein expression in acute leukemia cell lines; format: cell-based; details: 500 nM; most cell lines (OCI-AML3, JURKAT, RS4-11, NB4, NOMO-1, HL60)
[12] = tested on: AML and ALL cell lines; assay: cell cycle analysis; format: cell-based; details: 500 nM, 48 h
[13] = tested on: caspase-3 and cytochrome c; assay: ex vivo caspase-3 activation and mitochondrial cytochrome c release in AML patient samples; format: cell-based, human; details: samples from three AML patients
Experimental: as §1

[14] = tested on: nine AML and four ALL cell lines; assay: cell viability, MTT assay; format: cell-based
Experimental: Cellular effects of compound (1-1) in various acute leukemia subtypes were evaluated. Cell viability after compound (1-1) exposure was evaluated with the MTT assay in nine AML and four ALL cell lines. Significant growth inhibition, defined as submicromolar IC50, was found in six of nine AML cell lines and all four ALL cell lines tested. The K562, KG1a and HL60 AML cell lines were resistant to compound (1-1).

Cc1sc2c(c1C)C(c1ccc(Cl)cc1)=N[C@@H](CC(=O)Nc1ccc(O)cc1)c1nnc(C)n1-2 [compound (1-1), 2-[(6S)-4-(4-chlorophenyl)-2,3,9-trimethyl-6H-thienol[3,2-f]-[1,2,4]triazolo[4,3-a][1,4]diazepin-6-yl]-N-(4-hydroxyphenyl)acetamide dihydrate]
HEXIM1 mRNA expression ([1]; 500 nM, 4 and 24 h, K562, HL-60, NB4, NOMO-1, KG1, OCI-AML3, JURKAT, RS4-11): increased | HEXIM1 protein levels ([1]; 500 nM, 24-72 h, OCI-AML3, JURKAT and RS4-11 cell lines, dihydrate): Increases | HEXIM1 mRNA expression ([1]; 500 nM, 24 h, all cell lines except K562): increased | HEXIM1 mRNA expression, increase ([1]; 500 nM, 24 h, compound (1-1) resistant K562 cells): insignificant (less than twice) | HEXIM1 upregulation, rank among cell lines ([1]; OCI-AML3 and RS4-11 cell lines): highest | apoptosis ([2]; 6 of 14 AML patients (4, 8, 9, 14, 16, 18)): no or a mild increase | increased apoptosis compared to control-treated cells ([2]; BM cells from 8 of 14 AML patients (3, 15, 17, 26, 27, 28, 31, 38)): 35-90% | apoptosis ([2]; two ALL patients (40 and 43)): no or a mild increase | BRD3 protein levels [3]: unmodified | c-MYC protein levels ([4]; 24-72 h, all cell lines evaluated other than KG1 (OCI-AML3, K562, NB4, NOMO-1, HL60, JURKAT, RS4-11), dihydrate): decreased to a variable extent; also recorded: Decreases | c-MYC gene expression ([4]; 4 h and 24 h, same cell lines and KG1): decreased ubiquitously | c-MYC RNA levels ([4]; 24 h, all AML and ALL cell lines (K562, HL-60, NB4, NOMO-1, KG1, OCI-AML3, JURKAT, RS4-11)): ubiquitously downregulated | BRD4 protein expression [5]: decreased | c-MYC mRNA expression ([6]; 48 h, seven AML samples and two ALL samples): downregulated | c-MYC protein expression ([6]; 72 h, three primary AML samples): clearly decreased | caspase-3 activation [7]: activated | cytochrome c release [7]: induced | BRD2 protein expression [8]: clearly decreased | apoptotic cells ([9]; five of nine AML cell lines (HEL, NB4, NOMO-1, OCI-AML3, KASUMI)): 30-90% | apoptotic cells ([9]; two of four ALL cell lines (JURKAT and RS4-11)): 50-90% | apoptosis (Annexin V staining and PI uptake) ([9]; 25 to 500 nM): significant apoptosis | BRD2, BRD3 and BRD4 mRNA expression ([10]; HL60 and NOMO-1 cells): increased | BRD2, BRD3 and BRD4 mRNA expression ([10]; K562 and NB4 cell lines): dramatically decreased | BRD2, BRD3 and BRD4 mRNA expression ([10]; K562 cells): significantly decreased | BRD2, BRD3 and BRD4 mRNA expression ([10]; KG1, OCI-AML3, JURKAT, BV-173 and RS4-11): mild variations | BRD2, BRD3 and BRD4 mRNA expression ([10]; other cell lines (Example 7)): minimal to no increases | BRD2 protein expression [11]: decrease | cells in the sub-G1 phase ([12]; KG1a, KG1, HEL, KASUMI and JURKAT): significant increase | transition from G1 to S-phase ([12]; all 13 cell lines): decreased | activation of caspase-3 [13]: induced activation | mitochondrial cytochrome c release [13]: induced | sensitivity to compound (1-1), MTT ([14]; K562, KG1a and HL60 AML cell lines): resistant | IC50 (growth inhibition, MTT) ([14]; six of nine AML cell lines and all four ALL cell lines): submicromolar
